Test results taken from patent publication US20260306476A1, “ANTIBACTERIAL COMPOUND PBT2” (priority 2022, published 2026).
Like-named read-outs stand apart in the source and are kept apart here.

Experiments:
Assay type in all cases: cell-based
[1] = test system: Campylobacter jejuni NCTC 11168; experiment: MIC of PBT2 alone (broth); conditions: NCTC11168
Description: (§1) The MIC of PBT2 against three Campylobacter jejuni strains was determined. All strains tested were sensitive to PBT2.

[2] = test system: Campylobacter jejuni ATCC 33560; experiment: MIC of PBT2 alone (broth); conditions: ATCC33560
Description: as §1

[3] = test system: Campylobacter jejuni 81-176; experiment: MIC of PBT2 alone (broth); conditions: 81176
Description: as §1

[4] = test system: MDR Neisseria gonorrhoeae; experiment: RNA-seq expression profile analysis after PBT2 treatment; conditions: for fold change in gene expression (up- or down-regulated) at 0.156 µg/mL / fold induction at 0.156 µg/mL: Neisseria gonorrhoeae
Description: Expression profile analysis using RNA-seq was performed to investigate the mode of action of PBT2 in killing Neisseria gonorrhoeae.

[5] = test system: Neisseria gonorrhoeae WHO Z; experiment: Time-kill assay; conditions: PBT2 alone at 0.313 mg/L (MIC)
Description: FIG. 1: Time-kill curves of Neisseria gonorrhoeae WHO Z in GC broth with or without PBT2. Error bars indicate standard deviation from 3 biological replicates.

[6] = sub-MIC PBT2 0.156 mg/L, cut-off >=2-fold, P<0.05
[7] = up-regulated gene WHOZ_00323 (ABC transporter periplasmic binding protein, iron related)
[8] = up-regulated gene WHOZ_00324 (iron(III) ABC transporter permease)

Compound: CN(C)Cc1ccc2c(Cl)cc(Cl)c(O)c2n1 [PBT2, 5,7-dichloro-2-[(dimethylamino)methyl]quinolin-8-ol]
- MIC [1]: 0.313 µg/mL
- MIC [2]: 0.156 µg/mL
- MIC [3]: 0.156 µg/mL
- fold change in gene expression (up- or down-regulated) at 0.156 µg/mL ([4]; read-out: Fold Change, down-regulated gene WHOZ_00293 (Periplasmic protein)): 3.56
- fold change in gene expression (up- or down-regulated) at 0.156 µg/mL ([4]; read-out: Fold Change, down-regulated gene WHOZ_00873 (outer membrane protein)): 3.36
- fold change in gene expression (up- or down-regulated) at 0.156 µg/mL ([4]; read-out: Fold Change, down-regulated gene WHOZ_00996 (Na(+)-translocating NADH-quinone reductase subunit D)): 3.25
- fold change in gene expression (up- or down-regulated) at 0.156 µg/mL ([4]; read-out: Fold Change, down-regulated gene WHOZ_00998 (Na(+)-translocating NADH-quinone reductase subunit B)): 3.3
- fold change in gene expression (up- or down-regulated) at 0.156 µg/mL ([4]; read-out: Fold Change, down-regulated gene WHOZ_01539 (NADH dehydrogenase subunit C)): 3.32
- fold change in gene expression (up- or down-regulated) at 0.156 µg/mL ([4]; read-out: Fold Change, down-regulated gene WHOZ_01541 (NADH dehydrogenase subunit E)): 3.77
- fold change in gene expression (up- or down-regulated) at 0.156 µg/mL ([4]; read-out: Fold Change, down-regulated gene WHOZ_01542 (NADH-quinone oxidoreductase, F subunit)): 3.57
- fold change in gene expression (up- or down-regulated) at 0.156 µg/mL ([4]; read-out: Fold Change, down-regulated gene WHOZ_01545 (NADH-quinone oxidoreductase subunit H)): 3.58
- fold change in gene expression (up- or down-regulated) at 0.156 µg/mL ([4]; read-out: Fold Change, down-regulated gene WHOZ_01546 (NADH dehydrogenase subunit I)): 4.11
- fold change in gene expression (up- or down-regulated) at 0.156 µg/mL ([4]; read-out: Fold Change, down-regulated gene WHOZ_01547 (NADH dehydrogenase subunit J)): 3.8
- fold change in gene expression (up- or down-regulated) at 0.156 µg/mL ([4]; read-out: Fold Change, down-regulated gene WHOZ_01548 (NADH dehydrogenase subunit K)): 4
- fold change in gene expression (up- or down-regulated) at 0.156 µg/mL ([4]; read-out: Fold Change, down-regulated gene WHOZ_01549 (NADH:ubiquinone dehydrogenase, L subunit)): 3.95
- fold change in gene expression (up- or down-regulated) at 0.156 µg/mL ([4]; read-out: Fold Change, down-regulated gene WHOZ_01550 (Predicted HKD family nuclease)): 3.73
- fold change in gene expression (up- or down-regulated) at 0.156 µg/mL ([4]; read-out: Fold Change, down-regulated gene WHOZ_01551 (NADH dehydrogenase subunit M)): 3.68
- fold change in gene expression (up- or down-regulated) at 0.156 µg/mL ([4]; read-out: Fold Change, down-regulated gene WHOZ_01552 (NADH dehydrogenase subunit N)): 3.41
- fold change in gene expression (up- or down-regulated) at 0.156 µg/mL ([4]; read-out: Fold Change, down-regulated gene bfr (bacterioferritin), first entry): 8.2
- fold change in gene expression (up- or down-regulated) at 0.156 µg/mL ([4]; read-out: Fold Change, down-regulated gene bfr (bacterioferritin), second entry): 7.73
- fold change in gene expression (up- or down-regulated) at 0.156 µg/mL ([4]; read-out: Fold Change, down-regulated gene cysK (Cysteine synthetase)): 3.38
- fold change in gene expression (up- or down-regulated) at 0.156 µg/mL ([4]; read-out: Fold Change, down-regulated gene nqrE): 3.48
- fold change in gene expression (up- or down-regulated) at 0.156 µg/mL ([4]; read-out: Fold Change, down-regulated gene nqrF): 3.47
- fold induction at 0.156 µg/mL ([4]; read-out: Fold Change, up-regulated gene WHOZ_00302 (MpeR)): 20.2
- fold induction at 0.156 µg/mL ([4]; read-out: Fold Change, up-regulated gene WHOZ_00403 (putative lipoprotein)): 19.1
- fold induction at 0.156 µg/mL ([4]; read-out: Fold Change, up-regulated gene WHOZ_00412 (putative ferredoxin)): 4.43
- fold induction at 0.156 µg/mL ([4]; read-out: Fold Change, up-regulated gene WHOZ_00413 (Thioredoxin)): 7.01
- fold induction at 0.156 µg/mL ([4]; read-out: Fold Change, up-regulated gene WHOZ_00880 (integral membrane protein)): 3.91
- fold induction at 0.156 µg/mL ([4]; read-out: Fold Change, up-regulated gene WHOZ_01151 (TonB-dependent receptor plug domain-containing protein)): 4.75
- fold induction at 0.156 µg/mL ([4]; read-out: Fold Change, up-regulated gene WHOZ_01152 (hemoglobin receptor)): 5.13
- fold induction at 0.156 µg/mL ([4]; read-out: Fold Change, up-regulated gene WHOZ_01153 (hemoglobin receptor)): 3.89
- fold induction at 0.156 µg/mL ([4]; read-out: Fold Change, up-regulated gene WHOZ_01683 (fetA)): 4.53
- fold induction at 0.156 µg/mL ([4]; read-out: Fold Change, up-regulated gene WHOZ_01837 (outer membrane protein)): 3.91
- fold induction at 0.156 µg/mL ([4]; read-out: Fold Change, up-regulated gene WHOZ_01985 (hypothetical periplasmic protein)): 5.49
- fold induction at 0.156 µg/mL ([4]; read-out: Fold Change, up-regulated gene WHOZ_02005 (transferrin-binding protein-like)): 10.1
- fold induction at 0.156 µg/mL ([4]; read-out: Fold Change, up-regulated gene WHOZ_02042 (TonB)): 11.9
- fold induction at 0.156 µg/mL ([4]; read-out: Fold Change, up-regulated gene WHOZ_02043 (ExbB)): 10.5
- fold induction at 0.156 µg/mL ([4]; read-out: Fold Change, up-regulated gene WHOZ_02044 (ExbD protein)): 12.5
- fold induction at 0.156 µg/mL ([4]; read-out: Fold Change, up-regulated gene WP_003690577.1 (hypothetical protein)): 4.61
- fold induction at 0.156 µg/mL ([4]; read-out: Fold Change, up-regulated gene WP_003690710.1 (hypothetical protein)): 8.64
- fold induction at 0.156 µg/mL ([4]; read-out: Fold Change, up-regulated gene fumC (Fumarase C)): 12.2
- fold induction at 0.156 µg/mL ([4]; sub-MIC PBT2 0.156 mg/L, read-out: up-regulation of mpeR): 20
- fold induction at 0.156 µg/mL ([4]; sub-MIC PBT2 0.156 mg/L, read-out: up-regulation of seven genes): > 10
- LogFC ([4]; down-regulated gene WHOZ_00293 (Periplasmic protein)): 1.83
- LogFC ([4]; down-regulated gene WHOZ_00873 (outer membrane protein)): 1.75
- LogFC ([4]; down-regulated gene WHOZ_00996 (Na(+)-translocating NADH-quinone reductase subunit D)): 1.70
- LogFC ([4]; down-regulated gene WHOZ_00998 (Na(+)-translocating NADH-quinone reductase subunit B)): 1.72
- LogFC ([4]; down-regulated gene WHOZ_01539 (NADH dehydrogenase subunit C)): 1.73
- LogFC ([4]; down-regulated gene WHOZ_01541 (NADH dehydrogenase subunit E)): 1.92
- LogFC ([4]; down-regulated gene WHOZ_01542 (NADH-quinone oxidoreductase, F subunit)): 1.83
- LogFC ([4]; down-regulated gene WHOZ_01545 (NADH-quinone oxidoreductase subunit H)): 1.84
- LogFC ([4]; down-regulated gene WHOZ_01546 (NADH dehydrogenase subunit I)): 2.04
- LogFC ([4]; down-regulated gene WHOZ_01547 (NADH dehydrogenase subunit J)): 1.93
- LogFC ([4]; down-regulated gene WHOZ_01548 (NADH dehydrogenase subunit K)): 2.00
- LogFC ([4]; down-regulated gene WHOZ_01549 (NADH:ubiquinone dehydrogenase, L subunit)): 1.98
- LogFC ([4]; down-regulated gene WHOZ_01550 (Predicted HKD family nuclease)): 1.90
- LogFC ([4]; down-regulated gene WHOZ_01551 (NADH dehydrogenase subunit M)): 1.88
- LogFC ([4]; down-regulated gene WHOZ_01552 (NADH dehydrogenase subunit N)): 1.77
- LogFC ([4]; down-regulated gene bfr (bacterioferritin), first entry): 3.03
- LogFC ([4]; down-regulated gene bfr (bacterioferritin), second entry): 2.95
- LogFC ([4]; down-regulated gene cysK (Cysteine synthetase)): 1.76
- LogFC ([4]; down-regulated gene nqrE): 1.80
- LogFC ([4]; down-regulated gene nqrF): 1.80
- regulation of genes encoding NADH-associated proteins ([4]; sub-MIC PBT2 0.156 mg/L, FIG. 3): down-regulated
- number of down-regulated genes [4, 6]: 96 genes
- number of up-regulated genes [4, 6]: 62 genes
- LogFC ([4]; up-regulated gene WHOZ_00302 (MpeR)): 4.33
- Fold Change [4, 7]: 5.44 fold
- LogFC [4, 7]: 2.44
- Fold Change [4, 8]: 3.74 fold
- LogFC [4, 8]: 1.90
- LogFC ([4]; up-regulated gene WHOZ_00403 (putative lipoprotein)): 4.26
- LogFC ([4]; up-regulated gene WHOZ_00412 (putative ferredoxin)): 2.15
- LogFC ([4]; up-regulated gene WHOZ_00413 (Thioredoxin)): 2.81
- LogFC ([4]; up-regulated gene WHOZ_00880 (integral membrane protein)): 1.97
- LogFC ([4]; up-regulated gene WHOZ_01151 (TonB-dependent receptor plug domain-containing protein)): 2.25
- LogFC ([4]; up-regulated gene WHOZ_01152 (hemoglobin receptor)): 2.36
- LogFC ([4]; up-regulated gene WHOZ_01153 (hemoglobin receptor)): 1.96
- LogFC ([4]; up-regulated gene WHOZ_01683 (fetA)): 2.18
- LogFC ([4]; up-regulated gene WHOZ_01837 (outer membrane protein)): 1.97
- LogFC ([4]; up-regulated gene WHOZ_01985 (hypothetical periplasmic protein)): 2.46
- LogFC ([4]; up-regulated gene WHOZ_02005 (transferrin-binding protein-like)): 3.33
- LogFC ([4]; up-regulated gene WHOZ_02042 (TonB)): 3.58
- LogFC ([4]; up-regulated gene WHOZ_02043 (ExbB)): 3.40
- LogFC ([4]; up-regulated gene WHOZ_02044 (ExbD protein)): 3.64
- LogFC ([4]; up-regulated gene WP_003690577.1 (hypothetical protein)): 2.20
- LogFC ([4]; up-regulated gene WP_003690710.1 (hypothetical protein)): 3.11
- LogFC ([4]; up-regulated gene fumC (Fumarase C)): 3.61
- time in which antibacterial activity occurred [5]: ≤ 3 h
